Laboratory results reported in patent US20240158446A1, “CYCLIC COMPOUND HAVING SELECTIVE INHIBITORY ACTION ON KRAS OVER HRAS AND NRAS” (CHUGAI SEIYAKU KABUSHIKI KAISHA, priority 2021, published 2024).
Where two headings read alike, the source gives them in different places.

How the values were obtained:
[1] = test system: human lung cancer strain NCI-H441; assay: cells; conditions: NCI-H441, 96 h, read-out: NCI-H441 IC50 (nM), NCI-H441 cell proliferation, 4 days, CellTiter-Glo;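 note: cell proliferation inhibition after four days measured by CellTiter-Glo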
[2] = biological target: GDP-bound KRAS wild-type protein (Homo sapiens, UniProt P01116); assay: Binding to KRAS by surface plasmon resonance (SPR), Single Cycle Kinetics; conditions: SPR, Single Cycle Kinetics
Sequence of GDP-bound KRAS wild-type protein (P01116 whole entry): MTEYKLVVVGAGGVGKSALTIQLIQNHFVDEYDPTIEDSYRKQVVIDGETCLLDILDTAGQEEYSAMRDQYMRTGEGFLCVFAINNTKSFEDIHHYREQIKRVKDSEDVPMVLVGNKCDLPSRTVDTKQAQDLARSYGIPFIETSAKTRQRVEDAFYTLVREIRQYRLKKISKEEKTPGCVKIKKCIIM

[3] = biological target: GDP-bound HRAS wild-type protein (Homo sapiens, UniProt P01112); assay: Binding to HRAS by surface plasmon resonance (SPR), Single Cycle Kinetics; conditions: SPR; for HRAS/KRAS (ratio of KD value for HRAS to KD value for KRAS): GDP-bound HRAS wild-type protein vs GDP-bound KRAS wild-type protein
Sequence of GDP-bound HRAS wild-type protein (P01112 whole entry): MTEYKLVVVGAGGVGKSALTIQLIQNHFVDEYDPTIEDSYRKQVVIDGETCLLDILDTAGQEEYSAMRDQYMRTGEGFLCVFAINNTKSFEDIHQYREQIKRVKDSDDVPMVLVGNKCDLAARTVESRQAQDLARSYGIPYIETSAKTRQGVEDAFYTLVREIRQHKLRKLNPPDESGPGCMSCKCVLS

[4] = biological target: GDP-bound NRAS wild-type protein (Homo sapiens, UniProt P01111); assay: Binding to NRAS by surface plasmon resonance (SPR), Single Cycle Kinetics; conditions: SPR; for NRAS/KRAS (ratio of KD value for NRAS to KD value for KRAS): GDP-bound NRAS wild-type protein vs GDP-bound KRAS wild-type protein
Sequence of GDP-bound NRAS wild-type protein (P01111 whole entry): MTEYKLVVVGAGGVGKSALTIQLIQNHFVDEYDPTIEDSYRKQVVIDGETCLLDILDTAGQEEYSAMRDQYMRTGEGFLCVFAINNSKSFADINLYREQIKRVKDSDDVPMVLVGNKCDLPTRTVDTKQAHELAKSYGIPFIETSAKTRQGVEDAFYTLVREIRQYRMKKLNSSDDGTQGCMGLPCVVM

[5] = test system: human lung cancer strain NCI-H441; conditions: read-out: NCI-H441 cell proliferation inhibitory activity, 50% proliferation inhibitory concentration (IC50 value); NCI-H441, four days, CellTiter-Glo;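 note: cell proliferation inhibition after four days measured by CellTiter-Glo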
[6] = 1:1 binding model, read-out: KD value with respect to GDP-bound KRAS wild-type protein
[7] = GDP-bound KRAS wild-type protein, read-out: KRAS KD

SMILES	IC50 [1] [nM]	Kd [2, 6] [nM]	Kd [2, 7] [nM]	HRAS/KRAS (ratio of KD value for HRAS to KD value for KRAS) [3]	ratio of the KD value with respect to GDP-bound HRAS wild-type protein to the KD value with respect to KRAS [3]	NRAS/KRAS (ratio of KD value for NRAS to KD value for KRAS) [4]	ratio of the KD value with respect to GDP-bound NRAS wild-type protein to the KD value with respect to KRAS [4]	IC50 [5] [nM]
CCC[C@H]1C(=O)N[C@@H]([C@@H](C)CC)C(=O)N(C)CC(=O)N(C)[C@H]2C/C=C\CCN(C2=O)[C@@H](Cc2ccc(C)cc2)C(=O)N(C)CC(=O)N[C@@H](CCc2ccc(C(F)(F)F)c(Cl)c2)C(=O)N2C[C@H](C)C[C@H]2C(=O)NC2(CCC2)C(=O)N(C)[C@@H](C2CCCC2)C(=O)N(C)[C@H](C(=O)N(C)CC)CC(=O)N1C [PP1850]	49.1	–	–	–	–	–	–	–
CC[C@H](C)[C@@H]1NC(=O)[C@H](CC)N(C)C(=O)C[C@@H](C(=O)N(C)CC)N(C)C(=O)[C@H](C2CCCC2)N(C)C(=O)C2(CCC2)NC(=O)[C@@H]2C[C@H](C)CN2C(=O)[C@H](CCc2ccc(C(F)(F)F)c(OC)c2)NC(=O)CN(C)C(=O)[C@H](Cc2ccc(C)cc2)N2CC/C=C\C[C@@H](C2=O)N(C)C(=O)CN(C)C1=O [PP1853]	30.4	–	–	–	–	–	–	–
CC[C@H](C)[C@@H]1NC(=O)[C@H](CC(F)F)N(C)C(=O)C[C@@H](C(=O)N(C)C)N(C)C(=O)[C@H](C2CCCC2)N(C)C(=O)C2(CC(C)(C)C2)NC(=O)[C@@H]2C[C@@H](C)CN2C(=O)[C@H](CCc2ccc(C(F)(F)F)c(OC)c2)NC(=O)CN(C)C(=O)[C@H](Cc2ccc(C)cc2)N2CC/C=C\C[C@@H](C2=O)N(C)C(=O)CN(C)C1=O [PP1877]	18.4	–	–	–	–	–	–	–
CCC[C@H]1C(=O)N[C@@H]([C@@H](C)CC)C(=O)N(C)CC(=O)N(C)[C@H]2C/C=C\CCN(C2=O)[C@@H](Cc2ccc(C(F)(F)F)cc2)C(=O)N(C)CC(=O)N[C@@H](CCc2cc(F)c(C(F)(F)F)c(F)c2)C(=O)N2C[C@H](OCC)C[C@H]2C(=O)N(C)C2(CCC2)C(=O)N(C)[C@@H](C2CCCC2)C(=O)N(C)[C@H](C(=O)N2CCCCC2)CC(=O)N1C [PP3118, (2S,8S,12R,14S,20S,23S,27S,30S,36S,38Z)-20-cyclopentyl-8-[2-[3,5-difluoro-4-(trifluoromethyl)phenyl]ethyl]-12-ethoxy-4,16,19,22,26,32,35-heptamethyl-30-[(1S)-1-methylpropyl]-23-(piperidine-1-carbonyl)-27-propyl-2-[[4-(trifluoromethyl)phenyl]methyl]spiro[1,4,7,10,16,19,22,26,29,32,35-undecazatricyclo[34.5.1.0^10,14]dotetracont-38-ene-17,1′-cyclobutane]-3,6,9,15,18,21,25,28,31,34,42-undecone]	–	0.12	0.12	B (a compound having 3 or more and less than 10 is denoted as B)	B (a compound having 3 or more and less than 10 is denoted as B)	A (a compound having 10 or more and less than 20 is denoted as A)	A (a compound having 10 or more and less than 20 is denoted as A)	6.7
CCC[C@H]1C(=O)N[C@@H]([C@@H](C)CC)C(=O)N(C)CC(=O)N(C)[C@H]2C/C=C\CCN(C2=O)[C@@H](Cc2ccc(C)cc2)C(=O)N(C)CC(=O)N[C@@H](CCc2cc(F)c(C(F)(F)F)c(F)c2)C(=O)N2C[C@H](OCC)C[C@H]2C(=O)N(C)C2(CCC2)C(=O)N(C)[C@@H](C2CCCC2)C(=O)N(C)[C@H](C(=O)N2CCCCC2)CC(=O)N1C [PP3119, (2S,8S,12R,14S,20S,23S,27S,30S,36S,38Z)-20-cyclopentyl-8-[2-[3,5-difluoro-4-(trifluoromethyl)phenyl]ethyl]-12-ethoxy-4,16,19,22,26,32,35-heptamethyl-30-[(1S)-1-methylpropyl]-23-(piperidine-1-carbonyl)-27-propyl-2-(p-tolylmethyl)spiro[1,4,7,10,16,19,22,26,29,32,35-undecazatricyclo[34.5.1.0^10,14]dotetracont-38-ene-17,1′-cyclobutane]-3,6,9,15,18,21,25,28,31,34,42-undecone]	–	0.09	0.09	A (a compound having 10 or more and less than 20 is denoted as A)	A (a compound having 10 or more and less than 20 is denoted as A)	A (a compound having 10 or more and less than 20 is denoted as A)	A (a compound having 10 or more and less than 20 is denoted as A)	3.5
CCC[C@H]1C(=O)N[C@@H]([C@@H](C)CC)C(=O)N(C)CC(=O)N(C)[C@H]2C/C=C\CCN(C2=O)[C@@H](Cc2ccc(C(F)(F)F)cc2)C(=O)N(C)CC(=O)N[C@@H](CCc2cc(F)c(C(F)(F)F)c(F)c2)C(=O)N2C[C@H](OCC)C[C@H]2C(=O)N(C)C2(CCC2)C(=O)N(C)[C@@H](C2CCCC2)C(=O)N(C)[C@H](C(=O)N2CCCC2)CC(=O)N1C [PP3120, (2S,8S,12R,14S,20S,23S,27S,30S,36S,38Z)-20-cyclopentyl-8-[2-[3,5-difluoro-4-(trifluoromethyl)phenyl]ethyl]-12-ethoxy-4,16,19,22,26,32,35-heptamethyl-30-[(1S)-1-methylpropyl]-27-propyl-23-(pyrrolidine-1-carbonyl)-2-[[4-(trifluoromethyl)phenyl]methyl]spiro[1,4,7,10,16,19,22,26,29,32,35-undecazatricyclo[34.5.1.0^10,14]dotetracont-38-ene-17,1′-cyclobutane]-3,6,9,15,18,21,25,28,31,34,42-undecone]	–	0.052	0.052	A (a compound having 10 or more and less than 20 is denoted as A)	A (a compound having 10 or more and less than 20 is denoted as A)	AA (a compound having 20 or more is denoted as AA)	AA (a compound having 20 or more is denoted as AA)	1.9
CCC[C@H]1C(=O)N[C@@H]([C@@H](C)CC)C(=O)N(C)CC(=O)N(C)[C@H]2C/C=C\CCN(C2=O)[C@@H](Cc2ccc(C)cc2)C(=O)N(C)CC(=O)N[C@@H](CCc2cc(F)c(C(F)(F)F)c(F)c2)C(=O)N2C[C@H](OCC)C[C@H]2C(=O)N(C)C2(CCC2)C(=O)N(C)[C@@H](C2CCCC2)C(=O)N(C)[C@H](C(=O)N2CCCC2)CC(=O)N1C [PP3121, (2S,8S,12R,14S,20S,23S,27S,30S,36S,38Z)-20-cyclopentyl-8-[2-[3,5-difluoro-4-(trifluoromethyl)phenyl]ethyl]-12-ethoxy-4,16,19,22,26,32,35-heptamethyl-30-[(1S)-1-methylpropyl]-27-propyl-2-(p-tolylmethyl)-23-(pyrrolidine-1-carbonyl)spiro[1,4,7,10,16,19,22,26,29,32,35-undecazatricyclo[34.5.1.0^10,14]dotetracont-38-ene-17,1′-cyclobutane]-3,6,9,15,18,21,25,28,31,34,42-undecone]	–	0.043	0.043	A (a compound having 10 or more and less than 20 is denoted as A)	A (a compound having 10 or more and less than 20 is denoted as A)	A (a compound having 10 or more and less than 20 is denoted as A)	A (a compound having 10 or more and less than 20 is denoted as A)	1.5
